Values quoted from earlier work in patent US20070249572A1, “Systems and methods for the delivery of corticosteroids” (Verus Pharmaceuticals, Inc., priority 2005, published 2007).

solubility in alcohols (alcohols): readily soluble in alcohols
solubility in water (water): virtually insoluble in water
Compound: CCCC1O[C@@H]2C[C@H]3[C@@H]4CCC5=CC(=O)C=C[C@]5(C)[C@H]4[C@@H](O)C[C@]3(C)[C@]2(C(=O)CO)O1 (stereo partly drawn) [budesonide, (R,S)-llβ,16α,17,21-tetrahydroxypregna-1,4-diene-3,20-dione cyclic 16,17-acetal with butyraldehyde]
